Results from ChEMBL document CHEMBL1201862, “PubChem BioAssay data set” (2004).
The source made the active and inactive calls.

Key:
[1] = biological target: T1, Nuclear receptor subfamily 0 group B member 1 (Homo sapiens, UniProt P51843); assay: Luminescence-based cell-based high throughput dose response assay for inhibitors of the orphan nuclear receptor subfamily 0, group B, member 1 (DAX1; NR0B1). [Related pubchem assays (depositor defined):AID504766, AID504790]; type: functional
T1 sequence (P51843 whole entry): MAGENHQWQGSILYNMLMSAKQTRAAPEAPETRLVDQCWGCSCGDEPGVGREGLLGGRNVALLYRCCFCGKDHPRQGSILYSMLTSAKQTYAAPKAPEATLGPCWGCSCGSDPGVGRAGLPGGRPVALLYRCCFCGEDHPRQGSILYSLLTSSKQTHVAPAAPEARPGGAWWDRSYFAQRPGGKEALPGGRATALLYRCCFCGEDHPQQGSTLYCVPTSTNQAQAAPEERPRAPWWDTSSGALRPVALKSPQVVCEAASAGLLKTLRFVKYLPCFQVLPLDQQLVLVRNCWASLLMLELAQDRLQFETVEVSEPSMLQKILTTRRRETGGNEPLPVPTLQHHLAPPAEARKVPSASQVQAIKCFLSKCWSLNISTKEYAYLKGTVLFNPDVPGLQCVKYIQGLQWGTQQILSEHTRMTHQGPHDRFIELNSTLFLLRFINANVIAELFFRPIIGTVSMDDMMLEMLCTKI

HEK293 [2] = assay: cells; type: functional, cell-based; conditions: Homo sapiens
CAAX prenyl protease 2 [3] = biological target: CAAX prenyl protease 2 (Homo sapiens, UniProt Q9Y256); assay: human Rce1 protease inhibitors, dose response, biochemical, yeast membranes, quenched-peptide fluorescence, cherry-pick (AID 588849)
Trypsin = Trypsin (Sus scrofa, UniProt P00761); assay: porcine trypsin inhibitors, dose response, selectivity assay for Rce1 protease inhibitor project, biochemical, quenched peptide fluorescence, cherry-pick (AID 488789)
[4] = growth suppression of beta-catenin-knockout colon cells, dose response, cell-based, HCT116, human colon tumor (AID 1045); type: functional;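 note: HCT116 colon tumor cells with beta catenin knocked out; cells exposed to compound for 60 hours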
[5] = microbe, parasite or virus in culture; type: functional; conditions: Mycobacterium tuberculosis
[6] = growth suppression of PTEN-null colon cells, dose response, cell-based, HCT116 PTEN knockout (AID 1047); type: functional;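 note: HCT116 colon tumor cells with PTEN knocked out; cells exposed to compound for 60 hours before readout; potency for loss of cell viability measured by luminescence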
Protein skinhead-1 = biological target: T2, Protein skinhead-1 (Caenorhabditis elegans, UniProt P34707); type: functional
T2 sequence (P34707 whole entry): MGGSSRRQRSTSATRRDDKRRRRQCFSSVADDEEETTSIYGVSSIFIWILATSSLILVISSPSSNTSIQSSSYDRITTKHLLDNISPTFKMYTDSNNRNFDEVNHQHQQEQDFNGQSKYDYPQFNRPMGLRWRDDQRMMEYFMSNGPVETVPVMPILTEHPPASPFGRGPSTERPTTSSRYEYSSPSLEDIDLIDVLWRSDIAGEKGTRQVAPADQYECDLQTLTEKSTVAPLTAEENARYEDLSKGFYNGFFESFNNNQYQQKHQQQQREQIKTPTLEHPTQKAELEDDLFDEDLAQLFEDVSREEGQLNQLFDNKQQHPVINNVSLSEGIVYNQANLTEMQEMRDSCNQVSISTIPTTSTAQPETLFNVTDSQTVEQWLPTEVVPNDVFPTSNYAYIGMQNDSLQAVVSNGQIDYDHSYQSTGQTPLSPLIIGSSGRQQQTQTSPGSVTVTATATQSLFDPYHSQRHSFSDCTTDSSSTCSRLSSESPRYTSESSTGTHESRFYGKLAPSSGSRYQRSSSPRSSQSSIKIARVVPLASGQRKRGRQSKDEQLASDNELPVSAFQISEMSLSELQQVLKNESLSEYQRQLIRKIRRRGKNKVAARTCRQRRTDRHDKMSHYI

CAAX prenyl protease 2 [7] = biological target: CAAX prenyl protease 2 (Saccharomyces cerevisiae S288c, UniProt Q03530); type: biochemical
[8] = Luminescence Cell-Based Dose Retest to Confirm Inhibitors of Cancer Stem Cells. [Related pubchem assays (depositor defined):AID2717, AID2721]; type: functional; conditions: Homo sapiens
[9] = HepG2 cell cytotoxicity, dose response, cytotoxicity control for Shn3 inhibitor project, CellTiter-Glo, cherry-picked (AID 624134); type: functional, cell-based
[10] = Shn3 3'UTR reporter inhibitors, dose response, cell-based, Clone20 osteoblasts, firefly luciferase, cherry-picked (AID 624132); type: functional;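 note: firefly luciferase luminescence from reporter carrying the Shn3 3'UTR in osteoblasts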
HEK293 [11] = assay: inhibitors of LMP1-driven NF-kB reporter, dose response, cell-based, HEK293, luciferase, cherry-pick (AID 588343); type: functional; conditions: Homo sapiens
[12] = biological target: Latent membrane protein 1 (Human herpesvirus 4 (strain B95-8), UniProt P03230); assay: TES1-eGFP NF-kB reporter inhibition versus Tet-On dsRED, dose response, selectivity assay for LMP1 NF-kB inhibitor project, imaging, HEK293T, dual-color eGFP/dsRED, cherry-picks (AID 588398); type: functional, cell-based
CAAX prenyl protease 1 = CAAX prenyl protease 1 (Saccharomyces cerevisiae S288c, UniProt P47154); assay: Ste24 protease inhibitors, dose response, biochemical, S. cerevisiae, plate reader, cherry-pick (AID 488815)
[13] = biological target: Dual specificity tyrosine-phosphorylation-regulated kinase 1A (Rattus norvegicus, UniProt Q63470); type: biochemical, Homo sapiens

Chain of Trypsin (P00761 whole entry): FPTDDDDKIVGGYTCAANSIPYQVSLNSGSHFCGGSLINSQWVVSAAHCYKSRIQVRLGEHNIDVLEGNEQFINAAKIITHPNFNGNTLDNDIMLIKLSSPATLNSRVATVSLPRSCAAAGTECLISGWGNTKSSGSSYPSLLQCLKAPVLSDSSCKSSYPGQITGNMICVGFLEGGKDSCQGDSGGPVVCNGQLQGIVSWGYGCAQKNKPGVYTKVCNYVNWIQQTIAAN
Chain of CAAX prenyl protease 2 (Saccharomyces cerevisiae S288c, UniProt Q03530) (Q03530 whole entry): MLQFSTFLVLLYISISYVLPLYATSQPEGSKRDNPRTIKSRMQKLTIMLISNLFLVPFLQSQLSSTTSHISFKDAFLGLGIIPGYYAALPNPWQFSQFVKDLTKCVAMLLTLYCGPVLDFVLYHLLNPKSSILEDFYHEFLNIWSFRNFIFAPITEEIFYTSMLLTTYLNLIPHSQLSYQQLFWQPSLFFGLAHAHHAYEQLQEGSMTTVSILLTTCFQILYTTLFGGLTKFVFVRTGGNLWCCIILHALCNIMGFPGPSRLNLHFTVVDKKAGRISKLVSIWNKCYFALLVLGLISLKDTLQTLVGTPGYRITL
Chain of Latent membrane protein 1 (P03230 whole entry): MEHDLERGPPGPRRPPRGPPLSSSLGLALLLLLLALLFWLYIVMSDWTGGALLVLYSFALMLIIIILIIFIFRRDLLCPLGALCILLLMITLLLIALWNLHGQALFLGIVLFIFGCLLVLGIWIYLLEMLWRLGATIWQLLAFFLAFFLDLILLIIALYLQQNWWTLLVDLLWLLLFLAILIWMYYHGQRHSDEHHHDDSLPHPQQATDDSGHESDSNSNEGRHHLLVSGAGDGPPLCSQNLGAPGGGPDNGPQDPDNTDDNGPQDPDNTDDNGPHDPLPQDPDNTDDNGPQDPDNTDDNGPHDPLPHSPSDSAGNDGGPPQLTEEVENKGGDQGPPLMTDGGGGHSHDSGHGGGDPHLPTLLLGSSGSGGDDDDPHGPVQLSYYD
Chain of CAAX prenyl protease 1 (P47154 whole entry): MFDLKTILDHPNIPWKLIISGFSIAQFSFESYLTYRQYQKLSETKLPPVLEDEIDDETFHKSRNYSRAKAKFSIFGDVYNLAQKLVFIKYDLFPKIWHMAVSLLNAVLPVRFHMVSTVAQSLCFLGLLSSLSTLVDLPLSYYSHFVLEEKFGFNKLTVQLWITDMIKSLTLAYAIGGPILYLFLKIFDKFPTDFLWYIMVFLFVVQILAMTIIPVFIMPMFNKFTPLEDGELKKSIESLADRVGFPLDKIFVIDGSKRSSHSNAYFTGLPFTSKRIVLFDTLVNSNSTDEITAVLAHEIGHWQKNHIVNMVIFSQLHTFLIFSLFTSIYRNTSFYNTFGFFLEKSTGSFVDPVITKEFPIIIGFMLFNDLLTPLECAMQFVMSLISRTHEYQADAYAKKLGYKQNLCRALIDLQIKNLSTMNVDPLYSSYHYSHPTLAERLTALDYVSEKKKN
Chain of CAAX prenyl protease 2 (Homo sapiens, UniProt Q9Y256) (Q9Y256 whole entry): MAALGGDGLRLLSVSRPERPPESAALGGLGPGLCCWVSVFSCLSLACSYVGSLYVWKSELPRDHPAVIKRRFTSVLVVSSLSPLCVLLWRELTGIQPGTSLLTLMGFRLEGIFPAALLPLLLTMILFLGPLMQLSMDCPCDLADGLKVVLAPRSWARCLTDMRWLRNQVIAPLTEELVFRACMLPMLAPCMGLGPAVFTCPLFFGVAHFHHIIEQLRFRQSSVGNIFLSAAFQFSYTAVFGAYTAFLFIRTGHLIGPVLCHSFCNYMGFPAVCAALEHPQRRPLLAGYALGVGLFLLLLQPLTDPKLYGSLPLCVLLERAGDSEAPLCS

For CCc1ccc(S(=O)(=O)Nc2c(C)nc3ncnn3c2O)cc1, the IC50 [1] was > 67.5 µM (inactive) and the IC50 (HEK293 [2]) was > 67.5 µM (inactive).
With COc1ccc(CNC(=O)c2c(N)n(CCCN3CCOCC3)c3nc4ccccc4nc23)cc1 the AC50 (CAAX prenyl protease 2 [3]) was 23.9 µM (active), the AC50 (Trypsin) was 10.5 µM (active) and the EC50 [4] was 15.3 µM (active). The CC50 [5] was 24.5 µM (active), the EC50 [6] was 17.4 µM (active) and the IC50 (Protein skinhead-1) was > 100 µM (inactive). The AC50 (CAAX prenyl protease 2 [7]) was 22.9 µM (active) and the AC50 [8] was 6.56 µM (active).
In the case of COc1ccc(S(=O)(=O)Cc2ccc(C(=O)NC3CC3)o2)cc1, the IC50 [1] is reported as > 67.6 µM (inactive) and the IC50 (HEK293 [2]) is reported as > 67.6 µM (inactive).
For CN1OC[C@@H]2CN[C@H](c3ccc(-c4cc5ccccc5o4)cc3)C[C@@H]21, the AC50 [9] was > 70 µM (inactive), the AC50 [10] was < 0.26 µM (active) and the AC50 (HEK293 [11]) was 0.0503 µM (active). The AC50 [12] was 51.1 µM (active).
In the case of COc1ccc2c3c([nH]c2c1)C(C)=NCC3 [HARMALINE], the AC50 (CAAX prenyl protease 1) is reported as 2.77 µM (active) and the AC50 [13] is reported as 1.24 µM (active).
